Data from paper PMC5342726, “Identification of small molecule inhibitors of ERCC1-XPF that inhibit DNA repair and potentiate cisplatin efficacy in cancer cells” (Oncotarget, 2016).

Key:
H460 cells = test: Colony survival assay in H460 cells; assay type: cell-based; conditions: for IC50: Homo sapiens, NCI-H460, Fig 4C, compound 4 h, cisplatin fixed at IC50 added after 2 h, read-out: compound titration with cisplatin at the IC50, colony survival; for fold change in cisplatin IC50 in combination: combination with cisplatin; for effect of compound alone on colony survival: compound titrated alone, 4 h
Procedure: We used H460, NSCLC cells, to first assess the impact on colony survival by knocking down ERCC1-XPF in these cells. […] Next, to assess if colony survival is affected we titrated cisplatin in these cells using a fixed concentration of Hit 1(50 μM) or Hit 2 (25 and 50 μM). […] Next, we assessed cisplatin potentiation by treating cells at a fixed cisplatin concentration (cisplatin IC50 in H460 cells) with Hit 1 or 2 titration (Figure 4C, filled symbols). H460 cells were treated with compound for a total of 4 hours while cisplatin was added to the media after 2 hours of compound pre-treatment. […] We also titrated Hit 1 or Hit 2 alone in these cells and treated for 4 h. […] We also assessed the effects of Hit 2 in another NSCLC cell line (H1299), which was either ERCC1 wildtype (WT) or knockout (KO) (Figure 4E).
Colony survival assay in a total reaction volume of 2.4 mL in a six-well plate Cells were split and seeded at a density of 300-400 format. Cells were transfected for 48 hours after which cells in a 60 mm plate and incubated overnight. The next complete media was added for 24 hours. Cells were day, the cells were treated with a fixed concentration of the seeded for clones and clones were selected using standard compound (Hit 1 or Hit 2) with cisplatin titration. After methods. ERCC1 KO clones were tested for ERCC1 treatment, fresh complete medium with antibiotics was and XPF expression by Western Blot using the ERCC1 added and the cells were then allowed to form colonies. In antibodies, 8F1, FL-297, and D-10 and the XPF antibody another method, the cells were seeded onto 60mm plates 3F2/3 (Santa Cruz).
Validation of genome editing was performed alone or titrated with a fixed concentration of cisplatin by PCR amplification with Taq polymerase (NEB) of (IC50 for the cell line used). Post treatment, the cells were exon 2 within the genomic DNA using the forward allowed to form colonies. Colonies were fixed with 95% primer: 5’ […]
methanol and stained with 0.2 % crystal violet. Colonies 3’ and the reverse primer: 5’ […]
with ≥50 cells were counted using a light microscope. Cell […] 3’. PCR product was cloned […]
survival was expressed as the ratio of average number of into a linearized pCR4-TOPO vector and transformed colonies in drug treated cells versus control cells x 100. into OneShot TOP10 E. coli using the TOPO-TA Cloning The experiment was done in triplicate for each drug Kit for Sequencing (Thermofisher). Bacterial colonies concentration. We have previously published the methods were selected with ampicillin and plasmid was extracted for ERCC1 and XPF knockdowns, which were used as using standard procedures. Plasmid was sequenced by controls. Briefly, cells were seeded onto six-well plates GeneWiz using an M13R primer. Potential sites of off-target editing in coding sequences were identified during
(density 2.5 × 10^5 cells /well) in antibiotic free media. guide RNA design with the Optimized CRISPR Design Two transfections were done at 24 h interval in each cell Tool. Primers were designed to amplify the exons line to knockdown ERCC1-XPF together according to containing the potential off-target sites and PCR product the manufacturer ’s (Dharmacon’s smartpools) protocol. was sequenced by GeneWiz. A list of specific off-target Addition of lipid reagent (Dharmafect 2, Dharmacon) sites and primers used to assess these off-target effects are […]

ERCC1 protein = test: Western blot of ERCC1 protein stability; assay type: cell-based; conditions: 50 μM, 24, 48 and 72 hours, compared to cisplatin control treatment
Procedure: In order to study if the compounds' inhibitory activity of ERCC1-XPF incision is due to inhibition of DNA binding ability, we performed EMSAs. One possibility for ERCC1-XPF enzyme inhibition is via inhibition of the ERCC1-XPF binding to DNA. In this assay, we incubated the titrated Hit 1 or 2 respectively with purified ERCC1-XPF on ice and reactions were initiated by the addition of the 5'-[^32P] radiolabeled DNA substrate 37°C. The samples were separated on a 10% native gel and the products were visualized via phosphorimager analysis. […] If these compounds were affecting the protein-protein interaction between ERCC1 and XPF, we would expect to observe loss of protein following treatment similar to what we have observed with ERCC1 and XPF knockdowns.
Supplementary Figure S3: A. Analysis of 16168 and 143099 on XPG incision activity. Compounds were titrated and inhibition of
XPG incision activity was quantified for 16168 (open circles) or 143099 (filled circles). The results are presented as the mean ± SEM of 3
independent experiments. B. Western bots assessing ERCC1 protein stability following cisplatin (IC50 concentration), 143099 (50 μM) and […]

| Compound | IC50 (H460 cells) [µM] | fold change in cisplatin IC50 in combination (H460 cells) | effect of compound alone on colony survival (H460 cells) | effect on ERCC1 protein levels (ERCC1 protein) |
| --- | --- | --- | --- | --- |
| Oc1cc(O)c2c(c1)OC(c1ccc(O)c(O)c1)C(O)C2c1c(O)cc(O)c2c1OC(c1ccc(O)c(O)c1)C(O)C2 (centres unmarked) [NSC143099] | 15 | ~ 3 fold | no effect on colony survival | neither Hit 1 nor Hit 2 affects ERCC1 protein levels |
| Cc1ccc(S(=O)(=O)Oc2cc(S(=O)(=O)O)cc3cc(S(=O)(=O)O)cc(N)c23)cc1 [NSC16168] | 4 | ~ 3 fold | no effect on colony survival | neither Hit 1 nor Hit 2 affects ERCC1 protein levels |
